Laboratory results reported in patent publication US12459908B2, “Alpha, beta unsaturated methacrylic esters with anti-inflammatory properties” (Sitryx Therapeutics Limited, priority 2020, dated 2025).

Tests used:
IL-1β = experiment: THP-1 AlphaLISA IL-1β cytokine inhibition assay (differentiated THP-1 cells); type: cell-based; conditions: LPS 24 hr then Nigericin 1 hour
Description: Biological Example 1—THP-1 AlphaLISA IL-1β
Measuring Inhibitory Effects on IL-1, Cytokine Output from THP-1s
(§1) The cytokine inhibition profiles of compounds of formula (I) were determined in a differentiated THP-1 cell assay. All assays were performed in RPMI-1640 growth medium (Gibco), supplemented with 10% fetal bovine serum (FBS; Gibco), 1% penicillin-streptomycin and 1% sodium pyruvate unless specified otherwise. The IL-1p cytokine inhibition assay was run in a background of differentiated THP-1 cells as described below. All reagents described were from Sigma-Aldrich unless specified otherwise. Compounds were prepared as 10 mM DMSO stocks.
(§2) THP-1 cells were expanded as a suspension up to 80% confluence in appropriate growth medium. Cells were harvested, suspended, and treated with an appropriate concentration of phorbol 12-myristate 13-acetate (PMA) over a 72 hr period (37° C./5% CO2).
(§3) Following 72 hrs of THP-1 cell incubation, cellular medium was removed and replaced with fresh growth media containing 1% of FBS. Working concentrations of compounds were prepared separately in 10% FBS treated growth medium and pre-incubated with the cells for 30 minutes (37° C./5% CO2). Following the 30 minute compound pre-incubation, THP-1s were treated with an appropriate concentration of LPS and the cells were subsequently incubated for a 24 hr period (37° C./5% CO2). An appropriate final concentration of Nigericin was then dispensed into the THP-1 plates and incubated for 1 hour (37° C./5% CO2) before THP-1 supernatants were harvested and collected in separate polypropylene 96-well holding plates.
(§4) Reagents from an IL-1β and IL-6 commercial kit (Perkin Elmer) were prepared and run according to the manufacturer's instructions. Subsequently, fluorescence signal detection in a microplate reader was measured (EnVision® Multilabel Reader, Perkin Elmer).
(§5) Percentage inhibition was calculated per cytokine by normalising the sample data to the high and low controls used within each plate (+/−LPS respectively). Percentage inhibition was then plotted against compound concentration and the 50% inhibitory concentration (IC50) was determined from the resultant concentration-response curve.

NRF2 = NRF2 activation assay (DiscoverX PathHunter NRF2 translocation kit, U2OS cells); type: cell-based; conditions: 6 hours
Description: Biological Example 2—NRF2 Activation Assay
Measuring Compound Activation Effects on the Anti-Inflammatory Transcription Factor NRF2 in DiscoverX PathHunter NRF2 Translocation Kit
Potency and efficacy of compounds of formula (I) against the target of interest to activate NRF2 (nuclear factor erythroid 2-related factor 2) were determined using the PathHunter NRF2 translocation kit (DiscoverX). The NRF2 translocation assay was run using an engineered recombinant cell line, utilising enzyme fragment complementation to determine activation of the Keap1-NRF2 protein complex and subsequent translocation of NRF2 into the nucleus. Enzyme activity was quantified using a chemiluminescent substrate consumed following the formation of a functional enzyme upon PK-tagged NRF2 translocation into the nucleus.
Additionally, a defined concentration of DMF was used as the ‘High’ control to normalise test compound activation responses to.
U2OS PathHunter eXpress cells were thawed from frozen prior to plating. Following plating, U2OS cells were incubated for 24 hrs (37° C./5% CO2) in commercial kit provided cell medium.
Following 24 hrs of incubation, plated U2OS cells were directly treated with an appropriate final concentration of compound. […]
Following compound treatment, the U2OS plates were incubated for a further 6 hours (37° C./5% CO2) before detection reagent from the PathHunter NRF2 commercial kit was prepared and added to test plates according to the manufacturer's instructions. Subsequently, the luminescence signal detection was measured in a microplate reader (PHERAstar®, BMG Labtech).
Percentage activation was calculated by normalising the sample data to the high and low controls used within each plate (+/−DMF). Percentage activation/response was then plotted against compound concentration and the 50% activation concentration ([…]) was determined from the plotted concentration-response curve.

[1] = Hepatocyte stability assay, mouse cryopreserved hepatocytes; type: in vitro ADME; conditions: cryopreserved hepatocytes, Mouse hepatocytes, 10 μM, 60 min, read-out: T½
Text: (§6) Biological Example 3—Hepatocyte Stability Assay
(§7) Defrosted cryo-preserved hepatocytes (viability >70%) were used to determine the metabolic stability of a compound via calculation of intrinsic clearance (CIint; a measure of the removal of a compound from the liver in the absence of blood flow and cell binding). Clearance data are particularly important for in vitro work as they can be used in combination with in vivo data to predict the half-life and oral bioavailability of a drug.
(§8) The metabolic stability in hepatocytes assay involves a time-dependent reaction using both positive and negative controls. The cells were pre-incubated at 37° C. and spiked with test compound (and positive control); samples taken at pre-determined time intervals were analysed to monitor the change in concentration of the initial drug compound over 60 minutes. A buffer incubation reaction (with no hepatocytes present) acted as a negative control and two cocktail solutions, containing compounds with known high and low clearance values (verapamil/7-hydroxycoumarin and propranolol/diltiazem), acted as positive controls. • 1. The assay was run with a cell concentration of 0.5×10^6 cells/mL in Leibovitz buffer. • 2. All compounds and controls were run in duplicate. • 3. Compound concentration was 10 μM. • 4. All compounds and controls were incubated with both cells and buffer to show turnover was due to hepatic metabolism. • 5. All wells on the incubation plate had 326.7 μL of either cells or buffer added. • 6. Prior to assay, cell and buffer-only incubation plates were preincubated for 10 mins at 37° C. • 7. The assay was initiated by adding compounds, 3.3 μL of 1 mM in 10% DMSO-90% Buffer; final DMSO concentration is 0.1%. • 8. Samples were taken at regular timepoints (0, 5, 10, 20, 40, 60 min) until 60 mins. • 9. Sample volume was 40 μL and was added to 160 μL of crash solvent (acetonitrile with internal standard) and stored on ice. • 10. At the end of the assay, the crash plates were centrifuged at 3500 rpm for 20 mins at 4° C. • 11. 80 μL of clear supernatant was removed and mixed with 80 μL of deionised water before being analysed by LC-MS/MS.
(§9) Raw LC-MS/MS data was exported to, and analysed in, Microsoft Excel for determination of intrinsic clearance. The percentage remaining of a compound was monitored using the peak area of the initial concentration as 100%. Intrinsic clearance and half-life values were calculated using a graph of the natural log of percentage remaining versus the time of reaction in minutes. Half-life (min) and intrinsic clearance (CIint in μL min^−1 10^−6 cells) values were calculated using the gradient of the graph (the elimination rate constant, k) and Equations 1 and 2.

[2] = system: cryo-preserved hepatocytes; experiment: as above; type: in vitro ADME
Text: as §6, §7, §8, §9

[3] = Hepatocyte stability assay, human cryopreserved hepatocytes; type: in vitro ADME; conditions: cryopreserved hepatocytes, Human hepatocytes, 10 μM, 60 min, read-out: T½
Text: as §6, §7, §8, §9

[4] = system: cryo-preserved hepatocytes; experiment: as above; type: in vitro ADME
Text: as §6, §7, §8, §9

IL-6 = experiment: THP-1 AlphaLISA IL-6 cytokine inhibition assay (differentiated THP-1 cells); type: cell-based; conditions: LPS 24 hr then Nigericin 1 hour
Description: as §1, §2, §3, §4, §5

[5] = Mouse hepatocytes, 10 μM, 60 min, numeric values
[6] = Human hepatocytes, 10 μM, 60 min, numeric values
[7] = Homo sapiens, normalised to DMF high control, class symbols
[8] = Mouse hepatocytes, 10 μM, 60 min, class symbols
[9] = compared to 4-octyl itaconate, ethyl 2-(2-chlorobenzyl)acrylate and 2-(2-chlorobenzyl)acrylic acid

SMILES	IC50 (IL-1β; Homo sapiens, class symbols) [µM]	IC50 (IL-6; Homo sapiens, class symbols) [µM]	EC50 (NRF2; Homo sapiens, class symbols) [µM]	Emax (NRF2; [7]) [%]	half-life at 10 μM ([1]; class symbols) [min]	Clint [2, 8]	half-life at 10 μM ([3]; class symbols) [min]	also measured
C=C(Cc1ccccc1Cl)C(=O)O [2-(2-chlorobenzyl)acrylic acid, reference compound]	–	–	–	–	–	–	–	IC50 (IL-1β; Homo sapiens, numeric values): > 100 µM; Emax (NRF2; Homo sapiens, normalised to DMF high control, numeric values): 2%; EC50 (NRF2; Homo sapiens, numeric values): > 100 µM; half-life at 10 μM ([1]; numeric values): 11 min; Clint [2, 5]: 95 μL min^−1 10^−6 cells; half-life at 10 μM ([3]; numeric values): 59 min; Clint [4, 6]: 21 μL min^−1 10^−6 cells
C=C(Cc1nc(Cc2ccc(CCCC)cc2)no1)C(=O)OCC(=O)O [Example 13, 2-((2-((3-(4-butylbenzyl)-1,2,4-oxadiazol-5-yl)methyl)acryloyl)oxy)acetic acid]	< 5	< 5	< 5	166 to 250	≤ 4	+ (+ means ≥351)	5 to 59	–
C=C(CC(=O)OCCCCCCCC)C(=O)O [4-octyl itaconate, reference compound]	–	–	–	–	–	–	–	IC50 (IL-1β; numeric values): 33 µM; IC50 (IL-6; numeric values): 25 µM; NRF2 activation Emax (NRF2; normalised to DMF high control, numeric values): 165%; EC50 (NRF2; numeric values): 22 µM; Clint [2, 5]: 351 μL min^−1 10^−6 cells; T½ [2, 5]: 4 min; Clint [4, 6]: 401 μL min^−1 10^−6 cells; T½ [4, 6]: 4 min
C=C(Cc1nc(C2(c3ccc(OC(F)(F)F)cc3)CC2)no1)C(=O)OCC(=O)O [Example 19, 2-((2-((3-(1-(4-(trifluoromethoxy)phenyl)cyclopropyl)-1,2,4-oxadiazol-5-yl)methyl)acryloyl)oxy)acetic acid]	< 5	< 5	5 to 10	166 to 250	5 to 11	++ (++ means 95-350)	5 to 59	–
C=C(Cc1nc(C2(c3ccc(SC(F)(F)F)cc3)CC2)no1)C(=O)OCC(=O)O [Example 22, 2-((2-((3-(1-(4-((trifluoromethyl)thio)phenyl)cyclopropyl)-1,2,4-oxadiazol-5-yl)methyl)acryloyl)oxy)acetic acid]	< 5	< 5	< 5	135 to 165	≤ 4	+ (+ means ≥351)	5 to 59	–
C=C(Cc1nc(CCCCCCCC)no1)C(=O)O[C@@H](CC(=O)O)C(F)(F)F [Example 6, (S)-4,4,4-trifluoro-3-((2-((3-octyl-1,2,4-oxadiazol-5-yl)methyl)acryloyl)oxy)butanoic acid]	< 5	< 5	< 5	> 250	≤ 4	+ (+ means ≥351)	5 to 59	–
C=C(Cc1nc(Cc2ccc(Cl)cc2)no1)C(=O)OCC(=O)O [Example 3, 2-((2-((3-(4-chlorobenzyl)-1,2,4-oxadiazol-5-yl)methyl)acryloyl)oxy)acetic acid]	11 to 20	–	11 to 21	135 to 165	> 11	+++ (For Clint (μL min^−1 10^−6 cells; mouse), +++ means <95)	> 100	Stability in mouse hepatocytes compared to comparators [2, 9]: more stable; Stability in human hepatocytes compared to comparators [4, 9]: more stable
C=C(Cc1nc(CCCCCCCC)no1)C(=O)OCC(=O)O [Example 1, 2-((2-((3-octyl-1,2,4-oxadiazol-5-yl)methyl)acryloyl)oxy)acetic acid]	< 5	< 5	< 5	135 to 165	≤ 4	+ (+ means ≥351)	5 to 59	–
C=C(Cc1nc(Cc2ccc(CCCC)cc2)no1)C(=O)OCCc1nnn[nH]1 [Example 14, 2-(1H-tetrazol-5-yl)ethyl 2-((3-(4-butylbenzyl)-1,2,4-oxadiazol-5-yl)methyl)acrylate]	< 5	< 5	< 5	135 to 165	≤ 4	+ (+ means ≥351)	5 to 59	–
C=C(Cc1nc(CCCCCCCC)no1)C(=O)O[C@H](CC(=O)O)C(F)(F)F [Example 5, (R)-4,4,4-trifluoro-3-((2-((3-octyl-1,2,4-oxadiazol-5-yl)methyl)acryloyl)oxy)butanoic acid]	< 5	< 5	< 5	135 to 165	≤ 4	+ (+ means ≥351)	5 to 59	–
C=C(Cc1nc(Cc2ccc(CCCC)cc2)no1)C(=O)O[C@@H](CC(=O)O)C(F)(F)F [Example 10, (S)-3-((2-((3-(4-butylbenzyl)-1,2,4-oxadiazol-5-yl)methyl)acryloyl)oxy)-4,4,4-trifluorobutanoic acid]	< 5	< 5	< 5	135 to 165	≤ 4	+ (+ means ≥351)	< 5	–
C=C(Cc1ccccc1Cl)C(=O)OCC [ethyl 2-(2-chlorobenzyl)acrylate, reference compound]	–	–	–	–	–	–	–	IC50 (IL-1β; Homo sapiens, numeric values): > 100 µM; half-life at 10 μM ([1]; numeric values): < 3 min; Clint [2, 5]: >460 μL min^−1 10^−6 cells; half-life at 10 μM ([3]; numeric values): < 3 min; Clint [4, 6]: >460 μL min^−1 10^−6 cells
